Key:
Assay in all cases: relative viability (nuclei count vs DMSO), 5 days (fraction); higher = more cells survive
[1] = tested on: A-427
Procedure, shortened: (§1)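 Lung cancer cell lines were seeded in 1536-well plates and dosed by pin tool the next day, with either a single drug or a fixed anchor-drug dose combined with five library-drug doses (not always all listed) spaced in √10 steps. Five days later, one step fixed the cells and stained their nuclei (final 0.05% Triton X-100, 1% formaldehyde, 1 ug/ml Hoechst), and nuclei were counted on 4× images. Relative viability is the nuclei count in treated wells divided by the count in vehicle wells, and each value is the median of duplicate plates.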

[2] = tested on: EPLC-272H
Procedure, shortened: as §1

[3] = tested on: HCC-366
Procedure, shortened: as §1

[4] = tested on: HCC-78
Procedure, shortened: as §1

[5] = tested on: HOP-62
Procedure, shortened: as §1

[6] = tested on: LC-2-ad
Procedure, shortened: as §1

[7] = tested on: LU99A
Procedure, shortened: as §1

[8] = tested on: LXF-289
Procedure, shortened: as §1

[9] = tested on: NCI-H1666
Procedure, shortened: as §1

[10] = tested on: NCI-H1792
Procedure, shortened: as §1

[11] = tested on: NCI-H1793
Procedure, shortened: as §1

[12] = tested on: NCI-H1915
Procedure, shortened: as §1

[13] = tested on: NCI-H1944
Procedure, shortened: as §1

[14] = tested on: NCI-H2085
Procedure, shortened: as §1

[15] = tested on: NCI-H2170
Procedure, shortened: as §1

[16] = tested on: NCI-H358
Procedure, shortened: as §1

[17] = tested on: NCI-H460
Procedure, shortened: as §1

[18] = tested on: SW 900
Procedure, shortened: as §1

With `COc1cc2nccc(Oc3ccc(NC(=O)Nc4cc(C)on4)c(Cl)c3)c2cc1OC` [Tivozanib] + NC(=O)Nc1cc(-c2cccc(F)c2)sc1C(=O)N[C@H]1CCCNC1 [AZD7762] (partner 0.2 µM) the relative viability ([1]; first compound 0.005 µM) was 0.75, the relative viability ([1]; first compound 0.01581 µM) was 0.795 and the relative viability ([1]; first compound 0.05 µM) was 0.728. It also gave a relative viability ([1]; first compound 0.1581 µM) of 0.68, a relative viability ([1]; first compound 0.5 µM) of 0.719 and a relative viability ([2]; first compound 0.005 µM) of 0.147. It also gave a relative viability ([2]; first compound 0.01581 µM) of 0.159, a relative viability ([2]; first compound 0.05 µM) of 0.186 and a relative viability ([2]; first compound 0.1581 µM) of 0.203. For the same molecule, the relative viability ([2]; first compound 0.5 µM) was 0.184, the relative viability ([3]; first compound 0.005 µM) was 0.333 and the relative viability ([3]; first compound 0.01581 µM) was 0.245. For the same molecule, the relative viability ([3]; first compound 0.05 µM) was 0.35, the relative viability ([3]; first compound 0.1581 µM) was 0.362 and the relative viability ([3]; first compound 0.5 µM) was 0.25. The relative viability ([4]; first compound 0.005 µM) was 0.551, the relative viability ([4]; first compound 0.01581 µM) was 0.677 and the relative viability ([4]; first compound 0.05 µM) was 0.674. For the same molecule, the relative viability ([4]; first compound 0.1581 µM) was 0.497, the relative viability ([4]; first compound 0.5 µM) was 0.657 and the relative viability ([5]; first compound 0.005 µM) was 0.559. It also gave a relative viability ([5]; first compound 0.01581 µM) of 0.646, a relative viability ([5]; first compound 0.05 µM) of 0.383 and a relative viability ([5]; first compound 0.1581 µM) of 0.429. It also gave a relative viability ([5]; first compound 0.5 µM) of 0.467, a relative viability ([6]; first compound 0.005 µM) of 0.821 and a relative viability ([6]; first compound 0.01581 µM) of 0.846. The relative viability ([6]; first compound 0.05 µM) was 0.856, the relative viability ([6]; first compound 0.1581 µM) was 0.881 and the relative viability ([6]; first compound 0.5 µM) was 0.815. The relative viability ([7]; first compound 0.005 µM) was 0.337, the relative viability ([7]; first compound 0.01581 µM) was 0.342 and the relative viability ([7]; first compound 0.05 µM) was 0.34. For the same molecule, the relative viability ([7]; first compound 0.1581 µM) was 0.27, the relative viability ([7]; first compound 0.5 µM) was 0.288 and the relative viability ([8]; first compound 0.005 µM) was 1.05. For the same molecule, the relative viability ([8]; first compound 0.01581 µM) was 1.03, the relative viability ([8]; first compound 0.05 µM) was 1.09 and the relative viability ([8]; first compound 0.1581 µM) was 1.21. It also gave a relative viability ([8]; first compound 0.5 µM) of 1.06, a relative viability ([9]; first compound 0.005 µM) of 0.784 and a relative viability ([9]; first compound 0.01581 µM) of 0.761. It also gave a relative viability ([9]; first compound 0.05 µM) of 0.956, a relative viability ([9]; first compound 0.1581 µM) of 0.82 and a relative viability ([9]; first compound 0.5 µM) of 0.845. It also gave a relative viability ([10]; first compound 0.005 µM) of 0.641, a relative viability ([10]; first compound 0.01581 µM) of 0.646 and a relative viability ([10]; first compound 0.05 µM) of 0.509. The relative viability ([10]; first compound 0.5 µM) was 0.53, the relative viability ([11]; first compound 0.005 µM) was 0.448 and the relative viability ([11]; first compound 0.01581 µM) was 0.391. The relative viability ([11]; first compound 0.05 µM) was 0.419, the relative viability ([11]; first compound 0.5 µM) was 0.328 and the relative viability ([12]; first compound 0.005 µM) was 0.728. It also gave a relative viability ([12]; first compound 0.01581 µM) of 0.687, a relative viability ([12]; first compound 0.05 µM) of 0.711 and a relative viability ([12]; first compound 0.1581 µM) of 0.717. The relative viability ([12]; first compound 0.5 µM) was 0.618, the relative viability ([13]; first compound 0.005 µM) was 0.392 and the relative viability ([13]; first compound 0.01581 µM) was 0.552. For the same molecule, the relative viability ([13]; first compound 0.05 µM) was 0.378, the relative viability ([13]; first compound 0.1581 µM) was 0.452 and the relative viability ([13]; first compound 0.5 µM) was 0.487. It also gave a relative viability ([14]; first compound 0.005 µM) of 0.881, a relative viability ([14]; first compound 0.01581 µM) of 0.862 and a relative viability ([14]; first compound 0.05 µM) of 1.05. The relative viability ([14]; first compound 0.1581 µM) was 0.912, the relative viability ([14]; first compound 0.5 µM) was 0.887 and the relative viability ([15]; first compound 0.005 µM) was 0.689. The relative viability ([15]; first compound 0.01581 µM) was 0.785, the relative viability ([15]; first compound 0.05 µM) was 0.809 and the relative viability ([15]; first compound 0.5 µM) was 0.856. It also gave a relative viability ([16]; first compound 0.005 µM) of 0.449, a relative viability ([16]; first compound 0.01581 µM) of 0.621 and a relative viability ([16]; first compound 0.05 µM) of 0.552. For the same molecule, the relative viability ([16]; first compound 0.1581 µM) was 0.513, the relative viability ([16]; first compound 0.5 µM) was 0.469 and the relative viability ([17]; first compound 0.005 µM) was 0.533. For the same molecule, the relative viability ([17]; first compound 0.01581 µM) was 0.689, the relative viability ([17]; first compound 0.05 µM) was 0.651 and the relative viability ([17]; first compound 0.1581 µM) was 0.566. The relative viability ([17]; first compound 0.5 µM) was 0.471, the relative viability ([18]; first compound 0.005 µM) was 0.649 and the relative viability ([18]; first compound 0.01581 µM) was 0.636. For the same molecule, the relative viability ([18]; first compound 0.05 µM) was 0.675 and the relative viability ([18]; first compound 0.5 µM) was 0.547.

Source: the supplement of paper PMC10307832
